The values that follow come from US20260103455A1, “ULK3 INHIBITORS AND USES THEREOF” (H. LEE MOFFITT CANCER CENTER AND RESEARCH INSTITUTE, INC., priority 2022, published 2026).

Where “and” joins values, the source holds several entries; their conditions need not be identical. Equal values may be shown once. Where a name gives a salt, the structure may show the parent alone.

Chain of JAK2 (O60674 whole entry): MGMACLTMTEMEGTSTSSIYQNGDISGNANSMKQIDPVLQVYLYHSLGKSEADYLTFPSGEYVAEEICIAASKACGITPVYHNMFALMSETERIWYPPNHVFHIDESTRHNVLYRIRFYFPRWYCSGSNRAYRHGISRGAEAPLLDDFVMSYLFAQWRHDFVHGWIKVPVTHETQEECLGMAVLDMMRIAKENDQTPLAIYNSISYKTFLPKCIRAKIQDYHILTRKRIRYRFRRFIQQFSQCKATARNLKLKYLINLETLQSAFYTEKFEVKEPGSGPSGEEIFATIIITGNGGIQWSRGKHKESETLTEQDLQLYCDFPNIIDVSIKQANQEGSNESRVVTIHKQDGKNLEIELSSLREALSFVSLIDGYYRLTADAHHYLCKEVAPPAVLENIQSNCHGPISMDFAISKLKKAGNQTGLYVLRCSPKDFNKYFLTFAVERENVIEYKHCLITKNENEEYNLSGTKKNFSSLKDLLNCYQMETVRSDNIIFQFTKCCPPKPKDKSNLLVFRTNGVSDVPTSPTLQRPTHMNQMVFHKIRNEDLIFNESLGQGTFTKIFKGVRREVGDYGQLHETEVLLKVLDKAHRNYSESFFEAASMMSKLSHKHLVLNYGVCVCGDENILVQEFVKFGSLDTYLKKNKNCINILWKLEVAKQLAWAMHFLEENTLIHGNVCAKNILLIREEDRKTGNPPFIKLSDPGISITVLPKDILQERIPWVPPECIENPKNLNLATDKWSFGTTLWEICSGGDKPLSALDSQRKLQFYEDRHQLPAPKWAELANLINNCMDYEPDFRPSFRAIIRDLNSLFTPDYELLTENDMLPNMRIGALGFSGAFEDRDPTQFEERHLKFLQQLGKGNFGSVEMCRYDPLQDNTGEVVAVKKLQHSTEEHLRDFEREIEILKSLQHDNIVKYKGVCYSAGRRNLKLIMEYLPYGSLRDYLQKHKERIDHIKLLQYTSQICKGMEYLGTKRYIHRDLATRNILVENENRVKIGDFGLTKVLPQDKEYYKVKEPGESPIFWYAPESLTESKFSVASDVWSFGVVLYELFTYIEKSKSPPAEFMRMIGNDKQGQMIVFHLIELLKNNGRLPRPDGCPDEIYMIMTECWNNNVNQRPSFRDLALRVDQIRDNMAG

The target in one experiment is T1, ULK3 (Homo sapiens, UniProt Q6PHR2).
T1 sequence (Q6PHR2 1-472): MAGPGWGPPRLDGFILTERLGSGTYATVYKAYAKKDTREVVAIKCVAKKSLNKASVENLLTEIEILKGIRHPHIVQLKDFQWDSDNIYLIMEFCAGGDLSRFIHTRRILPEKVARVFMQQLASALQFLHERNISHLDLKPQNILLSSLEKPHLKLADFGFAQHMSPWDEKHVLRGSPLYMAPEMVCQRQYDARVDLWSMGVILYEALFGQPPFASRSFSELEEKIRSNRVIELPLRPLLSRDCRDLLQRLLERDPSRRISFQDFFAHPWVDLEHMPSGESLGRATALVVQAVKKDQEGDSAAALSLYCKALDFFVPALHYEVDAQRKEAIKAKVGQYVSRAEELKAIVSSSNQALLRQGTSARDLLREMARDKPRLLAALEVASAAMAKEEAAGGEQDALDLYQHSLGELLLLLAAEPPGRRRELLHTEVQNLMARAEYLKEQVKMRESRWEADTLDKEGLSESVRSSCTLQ
Put plainly: DSF (ULK3) thermal shift. Type of experiment: binding.
For “2-Fluoro-N-methyl-4-((4-(4-((2,2,2-trifluoroethyl)carbamoyl)phenyl)pyrimidin-2-yl) amino)benzamide [BH1-106]”, the “DSF (ULK3) ΔTm (° C.)” value amounted to 9.9 °C.
The same measure, in the same setting: next, `CC(C)[C@H](CO)NC(=O)c1ccc(-c2ccnc(Nc3ccc(N4CCOCC4)cc3)n2)cc1` [BH1-063, (R)—N-(1-Hydroxy-3-methylbutan-2-yl)-4-(2-((4-morpholinophenyl)amino)pyrimidin-4-yl)benzamide]: 7.9 °C; `N#CCNC(=O)c1ccc(-c2ccnc(Nc3ccc(N4CCOCC4=O)cc3)n2)cc1` [BH1-090, N-(Cyanomethyl)-4-(2-((4-(3-oxomorpholino)phenyl)amino)pyrimidin-4-yl)benzamide]: 7.5 °C; `CN1CCN(c2ccc(Nc3ncc(F)c(-c4ccc(C(=O)NCC#N)cc4)n3)cc2F)CC1` [BH1-095]: 8.8 °C.
Same read-out and setting: in the case of `Cc1cnc(Nc2ccc(CN3CCN(C)CC3)cc2)nc1-c1ccc(C(=O)NCC#N)cc1` [BH1-102] it was 7.2 °C; in that of `COC(=O)c1ccc(Nc2nccc(-c3ccc(C(=O)NCC(F)(F)F)cc3)n2)cc1F` [BH1-104, Methyl 2-fluoro-4-((4-(4-((2,2,2-trifluoroethyl)carbamoyl)phenyl)pyrimidin-2-yl)amino)benzoate], 6.9 °C; in that of `CN1CCN(c2cccc(Nc3nccc(-c4ccc(C(=O)NCC(F)(F)F)cc4)n3)c2)CC1` [BH2-010, 4-(2-((3-(4-Methylpiperazin-1-yl)phenyl)amino)pyrimidin-4-yl)-N-(2,2,2-trifluoroethyl)benzamide], 14.4 °C.
As to `CN1CCN(c2cccc(Nc3nccc(-c4ccc(C(=O)N5CCC[C@@H]5C(F)(F)F)cc4)n3)c2)CC1` [BH2-011, (R)-(4-(2-((3-(4-Methylpiperazin-1-yl)phenyl)amino)pyrimidin-4-yl)phenyl) (2-(trifluoromethyl)pyrrolidin-1-yl) methanone], the “DSF (ULK3) ΔTm (° C.)” value is 14.5 °C and 14.4 °C.
Still for that read-out and setting: in the case of `CN1CCN(c2cccc(Nc3nccc(-c4ccc(C(=O)N5CCC[C@H]5C(F)(F)F)cc4)n3)c2)CC1` [BH2-013, (S)-(4-(2-((3-(4-Methylpiperazin-1-yl)phenyl)amino)pyrimidin-4-yl)phenyl) (2-(trifluoromethyl)pyrrolidin-1-yl) methanone] it was 10.9 °C; in that of `N#CCNC(=O)c1ccc(-c2ccnc(Nc3ccc(N4CCOCC4)cc3)n2)cc1` [BL4-106 HCl salt, reference compound], 14.3 °C and 9.9 °C; in that of `N#CC(NC(=O)c1ccc(-c2ccnc(Nc3ccc(N4CCOCC4)cc3)n2)cc1)c1ccccc1` (stereo not shown) [BL4-153, N-(Cyano (phenyl)methyl)-4-(2-((4-morpholinophenyl)amino)pyrimidin-4-yl)benzamide], 11.6 °C.
The same measure, in the same setting: in the case of `O=C(N[C@H](CO)Cc1ccccc1)c1ccc(-c2ccnc(Nc3ccc(N4CCOCC4)cc3)n2)cc1` [BR1-034, (S)—N-(1-Hydroxy-3-phenylpropan-2-yl)-4-(2-((4-morpholinophenyl)amino)pyrimidin-4-yl)benzamide] it was 9.1 °C; in that of `COC[C@@H](NC(=O)c1ccc(-c2ccnc(Nc3ccc(N4CCOCC4)cc3)n2)cc1)c1ccccc1` [BR1-036, (S)—N-(2-Methoxy-1-phenylethyl)-4-(2-((4-morpholinophenyl)amino)pyrimidin-4-yl)benzamide], 9.8 °C.
Still for that read-out and setting: next, `COC[C@H](NC(=O)c1ccc(-c2ccnc(Nc3ccc(N4CCOCC4)cc3)n2)cc1)c1ccccc1` [BR1-038, (R)—N-(2-Methoxy-1-phenylethyl)-4-(2-((4-morpholinophenyl)amino)pyrimidin-4-yl)benzamide]: 8.4 °C.
In the case of `O=C(NCC(F)(F)F)c1ccc(-c2ccnc(Nc3cccc(N4CCOCC4)c3)n2)cc1` [BR1-045, 4-(2-((3-Morpholinophenyl)amino)pyrimidin-4-yl)-N-(2,2,2-trifluoroethyl)benzamide], the “DSF (ULK3) ΔTm (° C.)” value stood at 14.7 °C.
Still for that read-out and setting: in the case of `O=C(c1ccc(-c2ccnc(Nc3cccc(N4CCOCC4)c3)n2)cc1)N1CCC[C@@H]1C(F)(F)F` [BR1-047] it was 13.4 °C; in that of `O=C(c1ccc(-c2ccnc(Nc3cccc(N4CCOCC4)c3)n2)cc1)N1CCC[C@H]1C(F)(F)F` [BR1-048], 9.3 °C.
The same measure, in the same setting: in the case of `CN1CCN(c2cc(F)cc(Nc3nccc(-c4ccc(C(=O)NCC(F)(F)F)cc4)n3)c2)CC1` [BR1-051] it was 11.1 °C.
Same read-out and setting: next, `CN1CCN(c2cc(F)cc(Nc3nccc(-c4ccc(C(=O)N5CCC[C@@H]5C(F)(F)F)cc4)n3)c2)CC1` [BR1-052]: 14.1 °C.
On to `CN1CCN(c2cc(F)cc(Nc3nccc(-c4ccc(C(=O)N5CCC[C@H]5C(F)(F)F)cc4)n3)c2)CC1` [BR1-053], for which the “DSF (ULK3) ΔTm (° C.)” value was determined as 10.5 °C.
For the compound `O=C(NCC(F)(F)F)c1ccc(-c2ccnc(Nc3ccc(N4CCOCC4)cc3N3CCOCC3)n2)cc1` [BR1-054], the “DSF (ULK3) ΔTm (° C.)” value was 1.3 °C.
On the same count and under the same terms, in the case of `Cc1cnc(Nc2ccc(N3CCOCC3)cc2)nc1-c1ccc(C(=O)NCC#N)cc1` [GM1-032, N-(Cyanomethyl)-4-(5-methyl-2-((4-(morpholino)phenyl)amino)pyrimidin-4-yl)benzamide] it was 8.4 °C; in that of `N#CCNC(=O)c1ccc(-c2nc(Nc3ccc(N4CCOCC4)cc3)ncc2F)cc1` [GM1-034, N-(Cyanomethyl)-4-(5-fluoro-2-((4-morpholinophenyl)amino)pyrimidin-4-yl)benzamide], 10.6 °C.
Same read-out and setting: next, `N#CCNC(=O)c1ccc(-c2nc(Nc3ccc(N4CCOCC4=O)cc3)ncc2Cl)cc1` [GM1-072, 4-(5-Chloro-2-((4-(3-oxomorpholino)phenyl)amino)pyrimidin-4-yl)-N-(cyanomethyl)benzamide]: 11.8 °C; `CS(=O)(=O)O.Cc1cnc(Nc2ccc(C3CCN(C)CC3)c(F)c2)nc1Nc1ccc(Cl)c(NS(=O)(=O)C(C)(C)C)c1` [MA9-060, reference compound]: 11.9 °C and 12.6 °C; `N#CCNC(=O)c1ccc(-c2ccnc(Nc3ccc(N4CCOCC4)cc3)n2)cc1` [Momelotinib (BL4-106), Momelotinib, reference compound]: 14.3 °C and 10.6 °C and 13.2 °C.
Still for that read-out and setting: in the case of `CN1CCC(c2cnc(Nc3nc(-c4ccc(C(=O)NCC#N)cc4)c4cc[nH]c4n3)cc2F)CC1` [RF1-058, N-(Cyanomethyl)-4-(2-((4-fluoro-5-(1-methylpiperidin-4-yl)pyridin-2-yl)amino)-7H-pyrrolo-[2,3-d]pyrimidin-4-yl)benzamide] it was 6.8 °C; in that of `Cc1cnc(Nc2ccc(C(=O)NC3CCN(C)CC3)c(F)c2)nc1Nc1ccc(Cl)c(NS(=O)(=O)C(C)(C)C)c1` [SG3-179, reference compound], 10.6 °C.

The next experiment has as its target JAK2 (Homo sapiens, UniProt O60674). Nature of the experiment: DSF (JAK2) thermal shift. It is filed as binding.
On to “2-Fluoro-N-methyl-4-((4-(4-((2,2,2-trifluoroethyl)carbamoyl)phenyl)pyrimidin-2-yl) amino)benzamide [BH1-106]”, for which the “DSF (JAK2) ΔTm (° C.)” value is 0.54 °C.
On the same count and under the same terms, in the case of `CC(C)[C@H](CO)NC(=O)c1ccc(-c2ccnc(Nc3ccc(N4CCOCC4)cc3)n2)cc1` [BH1-063, (R)—N-(1-Hydroxy-3-methylbutan-2-yl)-4-(2-((4-morpholinophenyl)amino)pyrimidin-4-yl)benzamide] it was 3.6 °C; in that of `N#CCNC(=O)c1ccc(-c2ccnc(Nc3ccc(N4CCOCC4=O)cc3)n2)cc1` [BH1-090, N-(Cyanomethyl)-4-(2-((4-(3-oxomorpholino)phenyl)amino)pyrimidin-4-yl)benzamide], 1.3 °C.
Consider `Cc1cnc(Nc2ccc(CN3CCN(C)CC3)cc2)nc1-c1ccc(C(=O)NCC#N)cc1` [BH1-102], for which the “DSF (JAK2) ΔTm (° C.)” value is 4.68 °C.
As for `COC(=O)c1ccc(Nc2nccc(-c3ccc(C(=O)NCC(F)(F)F)cc3)n2)cc1F` [BH1-104, Methyl 2-fluoro-4-((4-(4-((2,2,2-trifluoroethyl)carbamoyl)phenyl)pyrimidin-2-yl)amino)benzoate], the “DSF (JAK2) ΔTm (° C.)” value was found to be 0.05 °C.
Regarding `O=C(NCC(F)(F)F)c1ccc(-c2ccnc(Nc3ccc(N4CCOCC4)c(F)c3)n2)cc1` [BH1-138, 4-(2-((3-Fluoro-4-morpholinophenyl)amino)pyrimidin-4-yl)-N-(2,2,2-trifluoroethyl)benzamide], the “DSF (JAK2) ΔTm (° C.)” value is 0.5 °C.
